Measurements reported in patent US20250186450A1, “COMBINATION THERAPY COMPRISING DGK INHIBITORS and PD-1/PD-L1 INHIBITORS” (Incyte Corporation, priority 2023, published 2025).

How the values were obtained:
DGKα = DGKα (Homo sapiens (Human), UniProt P23743); experiment: In vitro DGKα inhibition assay (ADP-Glo); format: biochemical; conditions: 0.1 nM DGKα, 50 μM ATP, 20 μM DLG
Description: (§1) The DGKα and DGKζ biochemical reactions were performed using His-tagged human recombinant enzymes (Signal Chem, DGKα, #D21-10BH; DGKζ, #D30-10H)) and DLG (Dilauroyl-sn-glycerol) lipid substrate (Signal Chem, #D430-59). ADP-Glo assay was performed using ADP-Glo™ kinase Assay kit (Promega, #V9104). The reactions were carried out in assay buffer containing 40 mM Tris, pH 7.5, 0.1% CHAPS, 0.1% Prionex, 40 mM NaCl, 5 mM MgCl2, 1 mM CaCl2, and 1 mM DTT. DGKα reactions contained 0.1 nM DGKα, 50 μM ATP, and 20 μM DLG. And DGKζ reactions contained 0.4 nM DGKζ, 30 μM ATP, and 20 μM DLG.
(§2) For compound inhibition studies, 40 nL test compound in DMSO was added to wells of white polystyrene plates in 384-well (Greiner, #784075) or 1536-well format (Greiner, #782075). Compounds were added with top concentration of 2 mM with 11 point, 3-fold dilution series. Enzyme solution (contains 2×DGK enzyme concentration in 1× assay buffer) was added to the plate in 2 μL/well volume, followed by 2 μL/well of substrate solution (contains 2× concentration of ATP and DLG substrate in 1× assay buffer). Plates were then centrifuged for 1 min at 1200 RPM and sealed or lidded. For 4 μL reaction volume, test compounds were therefore diluted 100× to final top concentration of 20 μM. After 90 minute incubation, reactions were quenched by addition of 2 μL/well Promega ADP-Glo Reagent, followed by centrifugation and lidding. After 60 min incubation, 2 μL/well Promega Kinase Detection Reagent was added, plates centrifuged, and incubated for 30 min. Plates were then read using Luminescence method on BMG PHERAstar FSX plate reader. Percent inhibition was calculated and IC50s were determined using 4-parameter fit in Genedata Screener. Labcyte Echo acoustic dispenser was used for compound addition, and Formulatrix Tempest liquid handler was used for all reagent dispenses.

DGKζ = DGKζ (Homo sapiens (Human), UniProt Q13574); experiment: In vitro DGKζ inhibition assay (ADP-Glo); format: biochemical; conditions: 0.4 nM DGKζ, 30 μM ATP, 20 μM DLG
Description: as §1, §2

Sequence of DGKζ (Q13574 whole entry): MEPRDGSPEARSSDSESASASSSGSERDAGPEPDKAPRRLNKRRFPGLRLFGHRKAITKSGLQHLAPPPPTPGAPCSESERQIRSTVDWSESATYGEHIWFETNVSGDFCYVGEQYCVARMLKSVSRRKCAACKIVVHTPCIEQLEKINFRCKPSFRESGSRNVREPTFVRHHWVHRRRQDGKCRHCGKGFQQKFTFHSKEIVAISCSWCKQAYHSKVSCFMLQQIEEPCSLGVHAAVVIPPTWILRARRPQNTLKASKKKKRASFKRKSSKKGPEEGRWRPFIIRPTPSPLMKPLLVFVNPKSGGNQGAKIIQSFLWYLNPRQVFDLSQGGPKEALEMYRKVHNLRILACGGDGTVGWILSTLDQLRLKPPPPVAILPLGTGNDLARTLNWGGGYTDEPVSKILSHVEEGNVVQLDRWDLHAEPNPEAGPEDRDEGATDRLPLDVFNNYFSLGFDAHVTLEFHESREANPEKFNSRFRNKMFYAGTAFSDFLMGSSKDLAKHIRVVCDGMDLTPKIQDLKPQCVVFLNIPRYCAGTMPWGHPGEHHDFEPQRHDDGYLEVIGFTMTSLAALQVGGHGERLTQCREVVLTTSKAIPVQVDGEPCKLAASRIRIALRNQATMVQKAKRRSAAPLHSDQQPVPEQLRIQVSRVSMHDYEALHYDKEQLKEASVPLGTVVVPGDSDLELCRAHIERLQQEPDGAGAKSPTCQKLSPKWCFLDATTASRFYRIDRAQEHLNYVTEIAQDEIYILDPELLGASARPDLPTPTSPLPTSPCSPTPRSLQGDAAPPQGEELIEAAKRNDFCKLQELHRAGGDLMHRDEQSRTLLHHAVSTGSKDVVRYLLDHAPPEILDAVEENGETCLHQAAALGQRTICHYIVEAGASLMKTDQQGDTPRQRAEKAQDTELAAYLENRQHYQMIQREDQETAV
Sequence of DGKα (P23743 whole entry): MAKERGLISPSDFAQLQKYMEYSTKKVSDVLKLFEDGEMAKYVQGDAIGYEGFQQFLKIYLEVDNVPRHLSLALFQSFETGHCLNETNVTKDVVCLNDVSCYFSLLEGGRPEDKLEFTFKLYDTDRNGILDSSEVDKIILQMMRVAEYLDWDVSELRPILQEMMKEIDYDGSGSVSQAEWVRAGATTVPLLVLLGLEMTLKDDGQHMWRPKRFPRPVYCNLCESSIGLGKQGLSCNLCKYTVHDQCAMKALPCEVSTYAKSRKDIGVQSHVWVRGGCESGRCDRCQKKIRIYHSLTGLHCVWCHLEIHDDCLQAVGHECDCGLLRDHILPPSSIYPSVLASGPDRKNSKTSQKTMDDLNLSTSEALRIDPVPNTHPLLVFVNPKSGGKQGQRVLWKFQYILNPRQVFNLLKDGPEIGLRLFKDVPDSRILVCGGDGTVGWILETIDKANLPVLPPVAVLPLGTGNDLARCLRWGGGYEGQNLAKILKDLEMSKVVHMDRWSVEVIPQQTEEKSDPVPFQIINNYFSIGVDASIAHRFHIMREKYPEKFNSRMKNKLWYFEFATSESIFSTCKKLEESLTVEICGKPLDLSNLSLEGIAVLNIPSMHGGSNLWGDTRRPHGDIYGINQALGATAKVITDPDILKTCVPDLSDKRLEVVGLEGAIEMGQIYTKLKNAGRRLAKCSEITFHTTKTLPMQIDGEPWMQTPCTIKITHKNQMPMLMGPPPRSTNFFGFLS

SMILES | IC50 (DGKα) [nM] | IC50 (DGKζ) [nM]
Cc1nc2c(N3C[C@@H](C)N(C(c4ccc(F)c(Cl)c4)C4CC(F)(F)C4)C[C@@H]3C)nc3nncn3c2n1C[C@@H]1CCCO1 (single isomer, unassigned) [Example 3] | ≤ 20 | ≤ 20
Cc1nc2c(N3C[C@@H](C)N(C(c4ccc(Cl)c(F)c4)C4CC(F)(F)C4)C[C@@H]3C)nc3nncn3c2n1C[C@@H]1CCCO1 (single isomer, unassigned) [Example 4] | ≤ 20 | ≤ 20
C[C@@H]1CN(c2nc3nncn3c3c2ncn3C[C@@H]2CCCO2)[C@@H](C)CN1C(c1ccc(C(F)(F)F)cc1)C1CC(F)(F)C1 (single isomer, unassigned) [Example 6] | ≤ 20 | ≤ 20
C[C@@H]1CN(c2nc3nncn3c3c2ncn3C[C@@H]2CCCO2)[C@@H](C)CN1C(c1ccc(Cl)cc1)[C@@H]1CC1(F)F (single isomer, unassigned) [Example 7] | ≤ 20 | ≤ 20
C[C@@H]1CN(c2nc3nncn3c3c2ncn3C[C@@H]2CCCO2)[C@@H](C)CN1C(c1ccc(Cl)cc1)[C@H]1CC1(F)F (single isomer, unassigned) [Example 8] | ≤ 20 | ≤ 20
Cc1nc2c(N3C[C@@H](C)N(C(c4ccc(Cl)cc4)[C@@H]4CC4(F)F)C[C@@H]3C)nc3nncn3c2n1C[C@@H]1CCCO1 (single isomer, unassigned) [Example 9] | ≤ 20 | ≤ 20
CC(C)CC(c1ccc(Cl)cc1)N1C[C@H](C)N(c2nc3nncn3c3c2ncn3C[C@@H]2CCCO2)C[C@H]1C (single isomer, unassigned) [Example 10] | ≤ 20 | ≤ 20
Cc1nc2c(N3C[C@@H](C)N(C(CC(C)C)c4ccc(Cl)c(F)c4)C[C@@H]3C)nc3nncn3c2n1C[C@@H]1CCCO1 (single isomer, unassigned) [Example 11] | ≤ 20 | ≤ 20
Cc1nc2c(N3C[C@@H](C)N(C(c4ccc(C(F)(F)F)cc4)C4CC(F)(F)C4)C[C@@H]3C)cc3nncn3c2n1C[C@@H]1CCCO1 (single isomer, unassigned) [Example 17] | ≤ 20 | ≤ 20
C[C@@H]1CN(c2cc3nncn3c3c2ncn3C[C@@H]2CCCO2)[C@@H](C)CN1C(c1ccc(Cl)cc1)[C@@H]1CC1(F)F (single isomer, unassigned) [Example 18] | ≤ 20 | 20 to 200
CC[C@@H]1CN(c2cc3nncn3c3c2nc(C)n3C[C@@H]2CCCO2)[C@@H](C)CN1C(c1ccc(Cl)cc1)C1CC(F)(F)C1 (single isomer, unassigned) [Example 19] | ≤ 20 | ≤ 20
C[C@@H]1CN(c2cc3nncn3c3c2ncn3C[C@@H]2CCCO2)[C@@H](C)CN1C(c1ccc(Cl)cc1)C1CC(F)(F)C1 (single isomer, unassigned) [Example 22] | ≤ 20 | ≤ 20
Cc1nc2c(N3C[C@@H](C)N(C(c4ccc(Cl)cc4)C4CC(F)(F)C4)C[C@@H]3C)cc3nncn3c2n1C[C@@H]1CCCO1 (single isomer, unassigned) [Example 23] | ≤ 20 | ≤ 20
Cc1nc2c(N3C[C@@H](C)N(C(c4ccc(Cl)cc4)c4ccc(Cl)cc4)C[C@@H]3C)nc3nncn3c2n1C[C@@H]1CCCO1 [Example 5, 4-((2S,5R)-4-(Bis(4-chlorophenyl)methyl)-2,5-dimethylpiperazin-1-yl)-2-methyl-1-(((S)-tetrahydrofuran-2-yl)methyl)-1H-[1,2,4]triazolo[3,4-b]purine] | ≤ 20 | ≤ 20
C[C@@H]1CN(c2nc3nncn3c3c2ncn3C[C@@H]2CCCO2)[C@@H](C)CN1C(c1ccc(Cl)cc1)C1CC(F)(F)C1 (stereo partly drawn) [Example 12, 4-((2S,5R)-4-((4-Chlorophenyl)(3,3-difluorocyclobutyl)methyl)-2,5-dimethylpiperazin-1-yl)-1-(((S)-tetrahydrofuran-2-yl)methyl)-1H-[1,2,4]triazolo[3,4-b]purine] | ≤ 20 | ≤ 20
CC[C@@H]1CN(c2nc3nncn3c3c2ncn3C[C@@H]2CCCO2)[C@@H](C)CN1C(c1ccc(Cl)cc1)C1CC(F)(F)C1 (stereo partly drawn) [Example 13, 4-((2S,5R)-4-((4-Chlorophenyl)(3,3-difluorocyclobutyl)methyl)-5-ethyl-2-methylpiperazin-1-yl)-1-(((S)-tetrahydrofuran-2-yl)methyl)-1H-[1,2,4]triazolo[3,4-b]purine] | ≤ 20 | ≤ 20
Cc1nc2c(N3C[C@@H](C)N(Cc4ccc(C(F)(F)F)cc4F)C[C@@H]3C)nc3nncn3c2n1C[C@@H]1CCCO1 [Example 14, 4-((2S,5R)-4-(2-Fluoro-4-(trifluoromethyl)benzyl)-2,5-dimethylpiperazin-1-yl)-2-methyl-1-(((S)-tetrahydrofuran-2-yl)methyl)-1H-[1,2,4]triazolo[3,4-b]purine] | ≤ 20 | ≤ 20
